Assay [1] deals with T1, Solute carrier family 15 member 2 (Rattus norvegicus, UniProt Q63424).
T1 sequence (Q63424 whole entry): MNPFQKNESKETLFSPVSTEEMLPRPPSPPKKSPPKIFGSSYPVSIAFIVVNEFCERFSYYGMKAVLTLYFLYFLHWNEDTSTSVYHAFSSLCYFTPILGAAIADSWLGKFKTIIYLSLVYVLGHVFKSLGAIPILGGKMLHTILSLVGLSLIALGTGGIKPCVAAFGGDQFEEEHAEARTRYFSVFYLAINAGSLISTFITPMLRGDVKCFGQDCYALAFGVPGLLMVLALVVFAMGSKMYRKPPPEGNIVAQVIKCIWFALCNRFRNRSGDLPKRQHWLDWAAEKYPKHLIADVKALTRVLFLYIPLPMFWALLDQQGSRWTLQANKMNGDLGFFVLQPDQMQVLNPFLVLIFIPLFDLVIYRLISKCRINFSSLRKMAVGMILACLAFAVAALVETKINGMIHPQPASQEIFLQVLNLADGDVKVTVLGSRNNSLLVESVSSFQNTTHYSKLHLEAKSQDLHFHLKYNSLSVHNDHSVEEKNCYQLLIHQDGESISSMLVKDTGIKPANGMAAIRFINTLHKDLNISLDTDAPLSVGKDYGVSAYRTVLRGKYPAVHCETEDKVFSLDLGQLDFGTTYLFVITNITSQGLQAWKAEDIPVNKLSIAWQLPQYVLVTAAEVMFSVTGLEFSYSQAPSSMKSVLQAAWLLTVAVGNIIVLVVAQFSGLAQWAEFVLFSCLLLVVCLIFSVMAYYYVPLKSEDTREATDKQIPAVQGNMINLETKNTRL
In words: TP_TRANSPORTER: inhibition of Gly-Sar uptake in PEPT2-expressing LLC-PK1 cells. Format: functional, cell-based.

For assay [2], the target named is T2, Solute carrier family 15 member 1 (Rattus norvegicus, UniProt P51574).
T2 sequence (P51574 whole entry): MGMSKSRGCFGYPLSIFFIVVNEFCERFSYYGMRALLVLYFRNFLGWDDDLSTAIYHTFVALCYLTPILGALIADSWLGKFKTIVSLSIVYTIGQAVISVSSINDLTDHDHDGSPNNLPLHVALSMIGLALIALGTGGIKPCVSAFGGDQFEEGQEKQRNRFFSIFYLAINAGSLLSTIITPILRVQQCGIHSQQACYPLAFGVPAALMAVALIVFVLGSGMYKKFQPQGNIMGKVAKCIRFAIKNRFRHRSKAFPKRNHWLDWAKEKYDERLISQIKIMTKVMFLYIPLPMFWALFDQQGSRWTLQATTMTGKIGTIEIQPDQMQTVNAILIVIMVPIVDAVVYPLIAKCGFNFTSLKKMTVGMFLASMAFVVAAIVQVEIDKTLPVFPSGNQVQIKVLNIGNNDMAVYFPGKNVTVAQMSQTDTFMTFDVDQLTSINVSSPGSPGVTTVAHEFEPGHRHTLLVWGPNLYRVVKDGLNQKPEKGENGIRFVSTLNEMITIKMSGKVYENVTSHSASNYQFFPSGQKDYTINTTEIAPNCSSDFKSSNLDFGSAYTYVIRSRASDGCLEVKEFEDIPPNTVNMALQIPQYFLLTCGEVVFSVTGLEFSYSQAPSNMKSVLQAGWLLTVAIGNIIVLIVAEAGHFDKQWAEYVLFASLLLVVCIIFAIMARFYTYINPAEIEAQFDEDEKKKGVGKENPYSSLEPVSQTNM
In words: TP_TRANSPORTER: inhibition of Gly-Sar uptake in PEPT1-expressing LLC-PK1 cells. Format: functional, cell-based.

From ChEMBL document CHEMBL2073807, “Effects of glibenclamide on glycylsarcosine transport by the rat peptide transporters PEPT1 and PEPT2” (Br J Pharmacol, 1999) come the findings set out here.

A word on the Ki: it is the dissociation constant of the complex between target and ligand, obtained from inhibition or displacement.

SMILES strings stand for the structures.

For the compound `COc1ccc(Cl)cc1C(=O)NCCc1ccc(S(=O)(=O)NC(=O)NC2CCCCC2)cc1` [GLYBURIDE], the Ki was determined as 7.8 µM in assay [1] and 25 µM in assay [2].
